Where two headings read alike, the source gives them in different places.
Tests used:
[1] = CLARINET study; cited from earlier work
Excerpt: No interracial differences were observed regarding drug concentrations in the blood. This inter-study difference in the number of treatment required to achieve steady state is attributed to the associated with the low num ...

[2] = tested on: serum CgA; assay: Serum chromogranin A (CgA) concentration; assay type: in vivo, human; settings: 15 of 17 patients with baseline CgA >100 ng/mL
Protocol: Serum CgA, serum anti-lanreotide antibody, and serum lanreotide testing methods are described in the Electronic Supplementary Material.
In the primary analysis, the CBR point estimate at 24 weeks after the first injection and an exact F distribution-based 95% confidence interval (CI) were calculated. The CBR was selected as the primary endpoint, because maintaining SD was deemed beneficial and clinically meaningful for NET patients. In the secondary analysis, Kaplan–Meier curves of PFS and OS were prepared, and median values and 95% CIs were calculated. The ORRs at 24, 48, and 60 weeks after the first injection were also calculated. Regarding percent changes from baseline in the sum of the diameters of target lesion, descriptive statistics were calculated for each evaluation time point, and waterfall plots of the best response and last evaluation time points were prepared. Regarding the serum CgA concentration and QOL evaluation, descriptive statistics of changes from baseline were calculated for each time point. For all endpoints, the starting point of evaluation was set as the baseline for the phase II study.
Serum chromogranin A concentrations were determined centrally every 12 weeks for the 48-weeks period following the start of administration, and every 24 weeks thereafter (SRL Medisearch Inc.,Tokyo,Japan, Kit Cisbio).

[3] = Pharmacokinetics: serum lanreotide concentration (radioimmunoassay); assay type: in vivo, human
Protocol: Full analysis set (FAS) and CLARINET-like FAS which was satisfied eligibility criteria of the CLARINET study were used for efficacy analysis. Safety analysis set which included patients who had received the study drug at least once was used for safety analysis. Per protocol set (PPS) was used for pharmacokinetic analysis.
Regarding pharmacokinetics evaluations, serum lanreotide concentrations were determined on the day of first administration (before and 2 and 4 h after administration of the study drug) and at 4, 8, 12, 16, and 20 (before and 2 and 4 h after administration of the study drug), 24, 36, and 48 weeks after the start of administration (or at the time of discontinuation). Serum lanreotide concentrations were centrally determined using a validated radioimmunoassay (RIA; Kymos Pharma Services S.L., Barcelona, Spain).

[4] = Serum anti-lanreotide antibody test (radioimmunoprecipitation assay); assay type: in vivo, human
Protocol: For the safety evaluation, adverse events (AEs) were recorded after the first injection until the point of data cutoff (December 2015) in the extension study. AE severity was assessed according to the National Cancer Institute Common Terminology Criteria for Adverse Events (NCI-CTCAE) ver. 4.0. Gallbladder echography and blood evaluations, including serum anti-lanreotide antibody tests were performed every 12 weeks during the 48 -week period after the first injection, and every 24 weeks thereafter.
Serum anti-lanreotide antibody levels were determined every 4 weeks for the 24-weeks period following the start of administration, and every 12 weeks thereafter for the 48-weeks. Serum anti-lanreotide antibody levels were centrally determined using a validated radioimmunoprecipitation assay (RIPA; SGS Cephac, Saint-Benoît, France). Anti-lanreotide antibody-positivity was evaluated in two stages: screening test and confirmation test. Antibody titers were determined for samples found to be positive in the confirmation test.

[5] = tested on: non-functional enteropancreatic NET; settings: CLARINET study, cited from earlier work
Excerpt: Tumors occurring in nerves or endocrine cells anywhere in the body can be classified as neuroendocrine neoplasm (NEN). NEN is classified into poorly-differentiated neuroendocrine carcinoma and well-differentiated neuroendocrine tumor (NET). NET is a rare disease and tends to proliferate slowly. According to an epidemiological survey conducted in Japan in 2010, the incidence of new pancreatic and gastrointestinal NET was 4.78 per 100,000 people (estimated number of patients treated: 11,467). The incidences of NET other than pancreatic and gastrointestinal NET remain unknown in Japan, wher ... || Furthermore, in the CLARINET study, a median PFS was not reached at 96 weeks (24 months), in contrast to the median PFS of 36.3 weeks (based on the RECIST ver. 1.1) in the present study. This difference is attributed to differences in baseline disease characteristics of the patient and tumor characteristics. The percentages of patients with PD at baseline and prior treatment for NET were 39.3% (11/28 patients) and 78.6% (22/28 patients), respectively, in the present, and only 4.0% (4/101 patients) and 15.8% (16/101 patients), respectively, in the CLARINET study. The current Japanese stud ...

For CC(C)[C@@H]1NC(=O)[C@H](CCCCN)NC(=O)[C@@H](Cc2c[nH]c3ccccc23)NC(=O)[C@H](Cc2ccc(O)cc2)NC(=O)[C@@H](NC(=O)[C@H](N)Cc2ccc3ccccc3c2)CSSC[C@@H](C(=O)N[C@H](C(N)=O)[C@@H](C)O)NC1=O [lanreotide], the “number of injections to steady state” value [1] is given as 6 injections, the “patients with serum CgA decrease of ≥50% by last examination relative to baseline” value [2] is given as 88.2% and the “number of doses to near-steady state” value ([3]; 120 mg every 4 weeks) is given as 3 doses. It also gave a Tmax ([3]; human, in vivo, injection at 20 weeks after the first injection, read-out: median time to reach the maximum serum concentration) of 3.8 h, a Tmax ([3]; human, in vivo, serum, PPS 28 patients, read-out: time of Cmax after the first injection (median)) of 3.9 h and a Cmax ([3]; human, in vivo, 120 mg every 4 weeks, PPS 28 patients, mean ± SD, read-out: Cmax at 20 weeks after the first injection) of 24.2 ± 20.2 ng/mL. The level at 672 h ([3]; human, serum, sc, 120 mg, PPS 28 patients, read-out: serum concentration at 4 weeks after the first injection, before injection (trough, mean ± SD)) was 3.1 ± 1.4 ng/mL, the level at 4032 h ([3]; human, serum, sc, 120 mg every 4 weeks, PPS 28 patients, mean ± SD, read-out: trough concentration at 24 weeks after the first injection) was 6.1 ± 3.3 ng/mL and the “Cmax after the first injection (mean ± SD)” value ([3]; serum, 120 mg deep s.c., PPS 28 patients, RIA) was 20.2 ± 18.2 ng/mL. For the same molecule, the “patients positive for anti-lanreotide antibodies” value ([4]; 2 patients, RIPA) was 6.3%, the Anti-lanreotide antibody test ([4]; Patient A, Baseline) was “Negative” and the Anti-lanreotide antibody test ([4]; Patient A, Week 4) was “Negative”. The Anti-lanreotide antibody test ([4]; Patient A, Week 8) was “Negative”, the Anti-lanreotide antibody test ([4]; Patient A, Week 12) was “Negative” and the Anti-lanreotide antibody test ([4]; Patient A, Week 16) was “Positive”. The Antibody titer ([4]; Patient A, Week 16) was 1/1, the Anti-lanreotide antibody test ([4]; Patient A, Week 20) was “Negative” and the Anti-lanreotide antibody test ([4]; Patient A, Week 24) was “Negative”. For the same molecule, the Anti-lanreotide antibody test ([4]; Patient A, Week 36) was “Positive”, the Antibody titer ([4]; Patient A, Week 36) was 1/2 and the Anti-lanreotide antibody test ([4]; Patient B, Baseline) was “Negative”. For the same molecule, the Anti-lanreotide antibody test ([4]; Patient B, Week 4) was “Negative”, the Anti-lanreotide antibody test ([4]; Patient B, Week 8) was “Positive” and the Antibody titer ([4]; Patient B, Week 8) was 1/4. The Anti-lanreotide antibody test ([4]; Patient B, Week 12) was “Positive”, the Antibody titer ([4]; Patient B, Week 12) was 1/32 and the Anti-lanreotide antibody test ([4]; Patient B, Week 16) was “Positive”. The Antibody titer ([4]; Patient B, Week 16) was 1/32, the Anti-lanreotide antibody test ([4]; Patient B, Week 20) was “Positive” and the Antibody titer ([4]; Patient B, Week 20) was 1/64. The Anti-lanreotide antibody test ([4]; Patient B, Week 24) was “Positive”, the Antibody titer ([4]; Patient B, Week 24) was 1/64 and the Anti-lanreotide antibody test ([4]; Patient B, Week 36) was “Positive”. For the same molecule, the Antibody titer ([4]; Patient B, Week 36) was 1/256, the Anti-lanreotide antibody test ([4]; Patient B, Week 48) was “Positive” and the Antibody titer ([4]; Patient B, Week 48) was 1/512. The “median PFS” value ([5]; up to 96 weeks (24 months), placebo 18.0 months) was “not reached” and the “hazard ratio for PFS vs placebo” value ([5]; 95% CI 0.30-0.73, P < 0.001) was 0.47.

Reference: PMC5502055, “Phase II study of lanreotide autogel in Japanese patients with unresectable or metastatic well-differentiated neuroendocrine tumors” (Investigational New Drugs, 2017)
